From patent US11590089B2, “Beta-2 selective adrenergic receptor agonists” (The Board of Trustees of the Leland Stanford Junior …, priority 2017, dated 2023)
Counter-ions that a name gives are not always drawn. Like-named read-outs stand apart in the source and are kept apart here.

Legend:
[1] = target: T1, β2-AR (Homo sapiens, UniProt P07550); assay: β-arrestin-2 recruitment assay at β2-AR; type: cell-based; conditions: for β-arrestin-2 recruitment β2-AR Emax: relative to norepinephrine; for EC50: ranges from screening experiments with a low number of repeats
Target sequence in this assay (P07550 whole entry): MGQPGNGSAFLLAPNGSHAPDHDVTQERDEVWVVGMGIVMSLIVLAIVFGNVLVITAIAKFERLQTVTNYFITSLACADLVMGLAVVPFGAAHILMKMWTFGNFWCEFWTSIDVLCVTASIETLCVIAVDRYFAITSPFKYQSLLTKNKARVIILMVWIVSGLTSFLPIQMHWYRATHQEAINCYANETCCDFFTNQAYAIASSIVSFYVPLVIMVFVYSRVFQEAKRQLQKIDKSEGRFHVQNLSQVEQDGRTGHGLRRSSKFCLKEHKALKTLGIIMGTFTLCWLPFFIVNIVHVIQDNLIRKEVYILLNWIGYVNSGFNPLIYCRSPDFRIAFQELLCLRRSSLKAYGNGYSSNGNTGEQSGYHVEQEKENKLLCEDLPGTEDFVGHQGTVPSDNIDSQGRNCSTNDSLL
Target sequence in this assay (P32121 whole entry partner): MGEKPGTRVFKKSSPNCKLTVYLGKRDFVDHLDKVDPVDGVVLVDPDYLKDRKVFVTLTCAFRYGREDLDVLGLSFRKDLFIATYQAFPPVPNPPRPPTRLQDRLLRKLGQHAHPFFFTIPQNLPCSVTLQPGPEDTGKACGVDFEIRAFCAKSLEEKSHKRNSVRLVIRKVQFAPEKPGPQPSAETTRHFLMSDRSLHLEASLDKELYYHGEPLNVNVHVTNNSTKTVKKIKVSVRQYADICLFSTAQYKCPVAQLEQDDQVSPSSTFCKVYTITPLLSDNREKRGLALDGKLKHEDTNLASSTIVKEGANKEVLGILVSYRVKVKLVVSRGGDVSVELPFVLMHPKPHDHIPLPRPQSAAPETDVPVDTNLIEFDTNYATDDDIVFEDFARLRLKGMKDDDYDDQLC

[2] = target: T1, β2-AR; assay: radioligand binding assay, β2-AR, [3H]CGP12177
Description: (§1) The binding affinities of exemplary compounds of interest at β1AR and β2AR were evaluated in a binding assay.
Target sequence in this assay (P07550 whole entry): as the sequence (P07550 whole entry) above

[3] = target: T2, β1-AR (Homo sapiens, UniProt P08588); assay: radioligand binding assay, β1-AR, [3H]CGP12177; conditions: values given as a range are from screening experiments with a low number of repeats
Description: as §1
Target sequence in this assay (P08588 whole entry): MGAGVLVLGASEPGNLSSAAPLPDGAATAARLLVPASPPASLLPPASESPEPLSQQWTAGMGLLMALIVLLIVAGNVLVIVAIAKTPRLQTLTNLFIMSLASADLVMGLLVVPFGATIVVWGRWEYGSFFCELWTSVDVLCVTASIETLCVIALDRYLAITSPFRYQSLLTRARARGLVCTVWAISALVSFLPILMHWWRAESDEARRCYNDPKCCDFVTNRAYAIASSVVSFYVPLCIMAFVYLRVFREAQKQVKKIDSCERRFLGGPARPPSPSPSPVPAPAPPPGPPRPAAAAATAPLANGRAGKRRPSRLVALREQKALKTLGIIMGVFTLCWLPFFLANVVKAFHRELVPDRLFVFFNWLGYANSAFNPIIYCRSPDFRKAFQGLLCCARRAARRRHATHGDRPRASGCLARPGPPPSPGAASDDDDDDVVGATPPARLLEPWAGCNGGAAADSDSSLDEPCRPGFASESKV

[4] = target: T2, β1-AR; assay: β-arrestin-2 recruitment assay at β1-AR; type: cell-based; conditions: relative to norepinephrine
Target sequence in this assay (P08588 whole entry): as above
Target sequence in this assay (P32121 whole entry partner): as the sequence (P32121 whole entry partner) above

[5] = β-arrestin-2 recruitment β2-AR EC50, n.d. = could not be determined because of lack of activity
[6] = Ki β1-AR [3H]CGP12177, radioligand [3H]CGP12177
[7] = n.d. = could not be determined because of lack of activity, read-out: β-arrestin-2 recruitment β2-AR EC50
[8] = radioligand [3H]CGP12177, values given as a range are from screening experiments with a low number of repeats, read-out: Ki β2-AR [3H]CGP12177
[9] = radioligand [3H]CGP12177, read-out: Ki β1-AR [3H]CGP12177

Question: How did the “β-arrestin-2 recruitment β2-AR Emax” value [1] turn out when CC(C)N[C@H]1CCc2c(ccc(O)c2O)[C@H]1O [AS424B, (R,S)-1,5,6-trihydroxy-N-isopropyl-1,2,3,4-tetrahydronaphthalen-2-aminium TFA] was run?
Answer: Its value is 91 % norepinephrine.

Question: And the EC50 [1, 5]?
Answer: The EC50 was 0.35 µM.

Question: And the Ki ([2]; Ki β2-AR [3H]CGP12177)?
Answer: Its Ki is 0.45 µM.

Question: What about the Ki [3, 6] of the same molecule?
Answer: The Ki was 24 µM.

Question: Which results are given for NC1CCc2c(ccc(O)c2O)C1 (single isomer, unassigned) [AS LM28]?
Answer: EC50 [1, 7]: 11 µM; β-arrestin-2 recruitment β2-AR Emax [1]: 77 % norepinephrine; Ki [2, 8]: 29 µM; β-arrestin-2 recruitment β1-AR Emax [4]: <10 % norepinephrine; Ki [3, 9]: > 100 µM

Question: Oc1ccc2c(c1O)CC[C@@H](NC1CCCC1)[C@H]2O [JS 3-65, (1 S,2R)-6-(Cyclopentylamino)-5,6,7,8-tetrahydronaphthalene-1,2,5-triol trifluoroacetate] was tested. Which Ki [2, 8] did it give?
Answer: The Ki was 2.5 µM.

Question: And the Ki [3, 9]?
Answer: The Ki was over 50 µM.

Question: Which “β-arrestin-2 recruitment β2-AR Emax” value [1] does the source give for NC[C@H](O)c1ccc(O)c(O)c1 [noradrenaline, reference compound] here?
Answer: Its value is 100 % norepinephrine.

Question: What about the “β-arrestin-2 recruitment β1-AR Emax” value [4] of the same molecule?
Answer: The value was 100 % norepinephrine.

Question: Which EC50 [1, 7] does the source give for O=C(O)C(F)(F)F.Oc1ccc2c(c1O)CC[C@@H](NC1CCCC1)[C@@H]2O [JS 3-159, (1R,2R)-6-(Cyclopentylamino)-5,6,7,8-tetrahydronaphthalene-1,2,5-triol trifluoroacetate] here?
Answer: The EC50 was 0.018 µM.

Question: What about the “β-arrestin-2 recruitment β2-AR Emax” value [1] of the same molecule?
Answer: The value was 97 % norepinephrine.

Question: What about the Ki [2, 8] of the same molecule?
Answer: Its Ki is 0.025 µM.

Question: What about the Ki [3, 9] of the same molecule?
Answer: The Ki was 7.1 µM.

Question: With CNC1CCc2cc(O)c(O)cc2C1 (racemic) [AS LM31] as the molecule, how does the EC50 [1, 7] read?
Answer: The EC50 was 12 µM.

Question: And the “β-arrestin-2 recruitment β2-AR Emax” value [1]?
Answer: Its value is 22 % norepinephrine.

Question: What about the Ki [2, 8] of the same molecule?
Answer: Its Ki is 80 µM.

Question: And the “β-arrestin-2 recruitment β1-AR Emax” value [4]?
Answer: The value was under 5 % norepinephrine.

Question: What about the Ki [3, 9] of the same molecule?
Answer: The Ki was 44 µM.

Question: For CC(C)N[C@H]1CCc2cc(O)c(O)cc2[C@H]1O (relative stereo) [JS 3-71, cis-2-(isopropylamino)-1,2,3,4-tetrahydronaphthalene-1,6,7-triol trifluoroacetate], which Ki [2, 8] is on record?
Answer: Its Ki is over 50 µM.

Question: And the Ki [3, 9]?
Answer: The Ki was over 50 µM.

Question: What does the source list for O=C(O)C(F)(F)F.Oc1ccc2c(c1O)CC[C@H](NC1CCCC1)[C@H]2O [JS 3-51, (1 S,2S)-6-(cyclopentylamino)-5,6,7,8-tetrahydronaphthalene-1,2,5-triol trifluoroacetate]?
Answer: EC50 [1, 7]: 0.12 µM; β-arrestin-2 recruitment β2-AR Emax [1]: 93 % norepinephrine; Ki [2, 8]: 0.24 µM; Ki [3, 9]: 27 µM

Question: For N[C@H]1CCc2cc(O)c(O)cc2C1 [AS LM15], which “β-arrestin-2 recruitment β2-AR Emax” value [1] is on record?
Answer: Its value is under 5 % norepinephrine.

Question: What about the “β-arrestin-2 recruitment β1-AR Emax” value [4] of the same molecule?
Answer: The value was under 5 % norepinephrine.

Question: What about the Ki [3, 9] of the same molecule?
Answer: Its Ki is 31 µM.

Question: How did the EC50 [1, 7] turn out when CNC1CCc2c(ccc(O)c2O)C1 (racemic) [AS LM33] was run?
Answer: Its EC50 is 2.1 µM.

Question: What about the “β-arrestin-2 recruitment β2-AR Emax” value [1] of the same molecule?
Answer: Its value is 125 % norepinephrine.

Question: And the Ki [2, 8]?
Answer: The Ki was 46 µM.

Question: What about the “β-arrestin-2 recruitment β1-AR Emax” value [4] of the same molecule?
Answer: Its value is under 10 % norepinephrine.

Question: What about the Ki [3, 9] of the same molecule?
Answer: The Ki was 90 µM.

Question: Which Ki [2, 8] does the source give for Oc1ccc2c(c1O)CC[C@H](NC1CCCC1)[C@@H]2O [JS 3-55, (1R,2S)-6-(cyclopentylamino)-5,6,7,8-tetrahydronaphthalene-1,2,5-triol trifluoroacetate] here?
Answer: The Ki was over 20 µM.

Question: And the Ki [3, 9]?
Answer: Its Ki is over 50 µM.

Question: For CC(C)N[C@@H]1CCc2c(ccc(O)c2O)[C@@H]1O [JS 3-99], which “β-arrestin-2 recruitment β2-AR Emax” value [1] is on record?
Answer: Its value is 100 % norepinephrine.

Question: What about the EC50 [1, 5] of the same molecule?
Answer: The EC50 was 1.2 µM.

Question: What about the Ki ([2]; Ki β2-AR [3H]CGP12177) of the same molecule?
Answer: Its Ki is 1.9 µM.

Question: And the Ki [3, 6]?
Answer: The Ki was 49 µM.

Question: N[C@@H]1CCc2cc(O)c(O)cc2C1 [AS LM16] was tested. Which “β-arrestin-2 recruitment β2-AR Emax” value [1] did it give?
Answer: The value was under 5 % norepinephrine.

Question: What about the Ki [2, 8] of the same molecule?
Answer: Its Ki is 76 µM.

Question: And the “β-arrestin-2 recruitment β1-AR Emax” value [4]?
Answer: The value was under 5 % norepinephrine.

Question: What about the Ki [3, 9] of the same molecule?
Answer: Its Ki is 83 µM.

Question: With CC(C)N[C@H]1CCc2c(ccc(O)c2O)[C@@H]1O [JS 3-97] as the molecule, how does the Ki ([2]; Ki β2-AR [3H]CGP12177) read?
Answer: The Ki was 0.37 µM.

Question: What about the Ki [3, 6] of the same molecule?
Answer: The Ki was over 50 µM.

Question: What does the source list for CC(C)N[C@@H]1CCc2cc(O)c(O)cc2[C@H]1O (relative stereo) [JS 3-89, trans-2-(Isopropylamino)-1,2,3,4-tetrahydronaphthalene-1,6,7-triol trifluoroacetate]?
Answer: Ki [2, 8]: > 50 µM; Ki [3, 9]: > 50 µM

Question: With NC1CCc2c(ccc(O)c2O)C1 (single isomer, unassigned) [AS LM27] as the molecule, how does the EC50 [1, 7] read?
Answer: The EC50 was 2.1 µM.

Question: And the “β-arrestin-2 recruitment β2-AR Emax” value [1]?
Answer: The value was 84 % norepinephrine.

Question: What about the Ki [2, 8] of the same molecule?
Answer: The Ki was 7.6 µM.

Question: What about the “β-arrestin-2 recruitment β1-AR Emax” value [4] of the same molecule?
Answer: Its value is under 5 % norepinephrine.

Question: And the Ki [3, 9]?
Answer: Its Ki is 46 µM.
